COC(=O)c1ccc2cc(C(=O)OC)ccc2c1
Conditions	solubility (mole fraction)
in DMAc, 299.11 K	0.00345
in DMAc, 315.05 K	0.0072
in DMAc, 320.35 K	0.00895
in DMAc, 326.25 K	0.0112
in DMAc, 330.38 K	0.0129
in DMAc, 337.27 K	0.0167
in DMAc, 342.39 K	0.0202
in DMAc, 352.75 K	0.0301
in DMAc, 358.55 K	0.0377
in DMAc, 364.4 K	0.0452
in DMAc, 370.8 K	0.0573
in DMAc, 376.26 K	0.0674
in DMAc, 381.71 K	0.0814
in DMAc, 383.38 K	0.0855
in DMAc, 387.01 K	0.0963
in DMAc, 391.14 K	0.107
in DMAc, 392.17 K	0.112
in DMF, 303.31 K	0.00253
in DMF, 309.36 K	0.00341
in DMF, 317.9 K	0.00521
in DMF, 329.65 K	0.00884
in DMF, 335.43 K	0.0116
in DMF, 342.21 K	0.015
in DMF, 349.85 K	0.0193
in DMF, 357.96 K	0.0272
in DMF, 362.73 K	0.0323
in DMF, 366.6 K	0.0396
in DMF, 368.38 K	0.0408
in DMF, 373.02 K	0.0495
in DMF, 377.86 K	0.0574
in DMF, 379.66 K	0.0611
in DMF, 382.14 K	0.0661
in DMF, 383.38 K	0.0699
in DMSO, 298.28 K	0.000669
in DMSO, 308.07 K	0.00113
in DMSO, 316.57 K	0.00179
in DMSO, 324.97 K	0.00272
in DMSO, 340.85 K	0.00537
in DMSO, 347.18 K	0.00726
in DMSO, 353.35 K	0.00952
in DMSO, 356.66 K	0.0109
in DMSO, 365.19 K	0.0157
in DMSO, 369.88 K	0.016
in DMSO, 374.65 K	0.0226
in DMSO, 386.85 K	0.0352
in DMSO, 394.81 K	0.0471
in DMSO, 405.07 K	0.069
in NMP, 293.2 K	0.0056
in NMP, 296.73 K	0.00577
in NMP, 300.48 K	0.00606
in NMP, 303.5 K	0.00632
in NMP, 308.77 K	0.00669
in NMP, 311.81 K	0.00687
in NMP, 317.1 K	0.0074
in NMP, 322.89 K	0.00803
in NMP, 328.16 K	0.00864
in NMP, 336.69 K	0.00914
in NMP, 345.34 K	0.0103
in NMP, 354.23 K	0.0115
in NMP, 360.09 K	0.0125
in NMP, 368.69 K	0.0132
in NMP, 375.38 K	0.016
in NMP, 383.36 K	0.0167
in NMP, 393.2 K	0.0195
in NMP, 404.46 K	0.0251
in NMP, 409.92 K	0.0271
in NMP, 414.36 K	0.0299
in NMP, 418.83 K	0.0328
in NMP, 423.7 K	0.0379
in NMP, 425.77 K	0.0399
in acetic acid, 292.49 K	0.00051
in acetic acid, 295.65 K	0.000621
in acetic acid, 300.35 K	0.000804
in acetic acid, 306.86 K	0.00116
in acetic acid, 311.63 K	0.00147
in acetic acid, 316.5 K	0.0019
in acetic acid, 320.65 K	0.00232
in acetic acid, 323 K	0.00254
in acetic acid, 329.15 K	0.00381
in acetic acid, 333.47 K	0.00428
in acetic acid, 337.2 K	0.0051
in acetic acid, 343.3 K	0.00657
in acetic acid, 350.13 K	0.00833
in acetic acid, 357.38 K	0.0113
in acetic acid, 362.8 K	0.0143
in acetic acid, 366.66 K	0.0169
in acetic acid, 372.51 K	0.0217
in acetic acid, 375.64 K	0.0248
in acetic acid, 381.78 K	0.0304
in acetic acid, 385.96 K	0.0352
in acetic acid, 392.47 K	0.046
in acetic acid, 394.71 K	0.0493
in acetic acid, 398.5 K	0.0564
in acetic acid, 400.54 K	0.0607

— BigSolDB 2.1
